Laboratory results taken from US10617117B2, “Insect repellent composition and method of use” (NEO-INNOVA HEALTHCARE LIMITED, priority 2015, dated 2020).
Entries after “also recorded” stand apart in the source; their conditions may differ.

Columns and labels:
[1] = Stability tests, accelerated storage 54° C. for 14 days (discoloration of vanillin); type: physicochemical; settings: room temperature and 54° C.; antioxidant added to vanillin-containing composition
Experimental: […] The front line accelerated conditions recommend testing at 54° C. for 14 days (see BPR 528/2012: Volume I. Part A, Chapter III: Requirements for Biocide Products, Version 1.1 Nov. 2014).

[2] = tested on: Aedes Aegypti; settings: at circa 50% concentrations, FIG. 1; cited from earlier work
[3] = tested on: Culex spp., Aedes spp., Mansonia spp., and Verrallina spp.; settings: compared with Anopheles spp.; cited from earlier work
[4] = human skin; cited from earlier work
[5] = tested on: biting flies, such as a mosquito; settings: in vivo; cited from earlier work
[6] = tested on: Aedes aegypti female mosquitoes; assay: laboratory arm or hand in cage test (complete protection time); type: in vivo; settings: Citriodiol as active substance, with vanillin, FIG. 14
Experimental: Complete protection times are calculated as the number of minutes (or hours) elapsed between the time of repellent application and the first mosquito landing or probing. Complete Protection Times are reported herein as a median value of protection time given by each individual. Complete Protection Times are abbreviated herein as CPTs. […]
Complete protection time provided by each product was evaluated by following hand in cage studies as per a modified WHO protocol (HTM/NTD/WHOPES/2009.4).
Typically, the test consisted of inserting a repellent treated arm into a cage measuring 35 cm on each side, containing laboratory bred 200 numbers of non-blood fed Aedes Aegypti mosquitoes which were approximately 5-7 days old and the elapsed time to first landing or probing (which refers to an insect landing and penetrating the skin with its mouthparts, without ingesting blood) was determined. […]
Readiness of the mosquitoes to bite (biting pressure) was checked by inserting un-treated arm for 1 minute prior to inserting treated arm at each 30-minute interval. […] Complete protection time was calculated as the number of minutes (or hours) elapsed between the time of repellent application and the first mosquito landing or probing. […]

| Structure (SMILES) | photosensitisation and secondary oxidation (discoloration) of vanillin [1] | CPTs compared with DEET [5] | further results |
| --- | --- | --- | --- |
| COc1ccc(O)c(C(C)(C)C)c1 [BHA] | negative | – | – |
| CCN(CC)C(=O)c1cccc(C)c1 [DEET, N,N-Diethyl-3-methylbenzamide] | – | – | CPT at which activity plateaus [2]: 5 to 6 h; protection against different mosquito genera [3]: longer against these genera than provided against Anopheles spp.; absorption through skin [4]: absorbed through human skin |
| CCCCN(CCC(=O)OCC)C(C)=O [IR3535, ethyl butylacetylaminopropionate] | – | neither ethyl butylacetylaminopropionate (IR3535) nor Picaridin (KBR 3023) has demonstrated meaningful superiority to DEET | – |
| CCC(C)OC(=O)N1CCCCC1CCO (stereo not drawn) [Picaridin] | – | neither ethyl butylacetylaminopropionate (IR3535) nor Picaridin (KBR 3023) has demonstrated meaningful superiority to DEET | – |
| CCCOC(=O)c1cc(O)c(O)c(O)c1 [propyl gallate] | negative | – | – |
| O=S([O-])O.[Na+] [sodium bisulphite] | Lack of photosensitisation and secondary oxidation of vanillin; also recorded: one significant exception | – | effect of addition of 1% antioxidant on efficacy (CPTs) [6]: still further significant improvement in efficacy |
